± gives the expanded uncertainty stated by the source.
Assay: molar heat capacity at saturation pressure

CCCCn1cc[n+](C)c1.Cc1ccc(S(=O)(=O)[O-])cc1 [1-butyl-3-methylimidazolium tosylate]
molar heat capacity [J/K/mol]
Conditions | Crystal 1 | Metastable crystal
205.31 K | – | 319.1 ± 3.4
205.46 K | 296.26 ± 3.1 | –
207.12 K | 298.09 ± 3.1 | –
207.15 K | 298.12 ± 3.1 | –
207.23 K | – | 320.66 ± 3.4
207.42 K | 298.43 ± 3.1 | –
209.08 K | 300.36 ± 3.1 | –
209.12 K | 300.45 ± 3.1 | –
209.16 K | – | 322.21 ± 3.4
209.38 K | 300.6 ± 3.1 | –
211.04 K | 302.62 ± 3.2 | –
211.08 K | – | 323.45 ± 3.4
211.09 K | 302.68 ± 3.2 | –
211.34 K | 302.99 ± 3.2 | –
213 K | 304.79 ± 3.2 | 325 ± 3.4
213.05 K | 304.92 ± 3.2 | –
213.31 K | 305.26 ± 3.2 | –
214.92 K | – | 326.24 ± 3.4
214.96 K | 307.15 ± 3.2 | –
215.01 K | 307.18 ± 3.2 | –
215.27 K | 307.65 ± 3.2 | –
216.84 K | – | 328.11 ± 3.4
216.91 K | 309.57 ± 3.2 | –
216.97 K | 309.61 ± 3.2 | –
217.22 K | 309.92 ± 3.2 | –
218.76 K | – | 329.66 ± 3.4
218.87 K | 311.96 ± 3.1 | –
218.93 K | 311.96 ± 3.1 | –
219.18 K | 312.59 ± 3.4 | –
220.68 K | – | 331.83 ± 3.4
220.82 K | 314.45 ± 3.4 | –
220.88 K | 314.45 ± 3.4 | –
221.13 K | 314.76 ± 3.4 | –
222.6 K | – | 333.69 ± 3.4
222.77 K | 317.86 ± 3.4 | –
222.83 K | 317.24 ± 3.4 | –
223.07 K | 317.55 ± 3.4 | –
224.51 K | – | 336.8 ± 3.4
224.72 K | 321.28 ± 3.4 | –
224.77 K | 321.9 ± 3.4 | –
225.01 K | 321.59 ± 3.4 | –
226.41 K | – | 340.21 ± 3.4
226.65 K | 326.86 ± 3.4 | –
226.7 K | 326.55 ± 3.4 | –
226.94 K | 328.11 ± 3.4 | –
228.3 K | – | 347.04 ± 3.7
228.56 K | 332.14 ± 3.4 | –
228.61 K | 331.83 ± 3.4 | –
228.85 K | 333.69 ± 3.4 | –
230.18 K | – | 352.94 ± 3.7
230.47 K | 336.18 ± 3.4 | –
230.52 K | 335.56 ± 3.4 | –
230.75 K | 336.8 ± 3.4 | –
232.06 K | – | 355.11 ± 3.7
232.37 K | 339.9 ± 3.4 | –
232.43 K | 338.97 ± 3.4 | –
232.65 K | 340.21 ± 3.4 | –
233.94 K | – | 356.97 ± 3.7
234.27 K | 341.76 ± 3.4 | –
234.33 K | 341.76 ± 3.4 | –
234.55 K | 342.7 ± 3.4 | –
235.82 K | – | 358.22 ± 3.7
236.17 K | 343.94 ± 3.7 | –
236.24 K | 343.01 ± 3.4 | –
236.45 K | 344.25 ± 3.7 | –
237.7 K | – | 359.46 ± 3.7
238.07 K | 346.11 ± 3.7 | –
238.14 K | 345.18 ± 3.7 | –
238.35 K | 346.42 ± 3.7 | –
239.58 K | – | 361.01 ± 3.7
239.97 K | 348.28 ± 3.7 | –
240.04 K | 347.35 ± 3.7 | –
240.25 K | 348.9 ± 3.7 | –
241.45 K | – | 362.87 ± 3.7
241.87 K | 350.46 ± 3.7 | –
241.94 K | 349.52 ± 3.7 | –
242.14 K | 350.77 ± 3.7 | –
243.33 K | – | 364.42 ± 3.7
243.76 K | 352.32 ± 3.7 | –
243.83 K | 351.7 ± 3.7 | –

— the NIST ThermoML archive (doi:10.1021/je700152c)
